Earlier results, collected in patent US20020035131A1, “Regimen and kit for amelioration of premature ejaculation” (Pentech Pharmaceuticals, Inc., priority 1999, published 2002).

Tested on: patients treated for premature ejaculation
Settings: cited from earlier work

In the case of `CN[C@H]1CC[C@@H](c2ccc(Cl)c(Cl)c2)c2ccccc21` [sertraline], the “patients who managed to ejaculate during sexual intercourse” value (25 mg sertraline/day, study group of 46) is given as “all patients”, the “men unable to ejaculate after prolonged sexual intercourse” value (50 mg sertraline/day, 4/46) is given as 9% and the “patients unable to ejaculate after prolonged sexual intercourse” value (100 mg sertraline/day, 10/46) is given as 22%.
